Experimental data reported in the supplement of paper PMC6045584.
± gives the standard deviation of the averaged measurements.

Key:
NUTLIN3 [1] = compound: T1, COc1ccc(C2=N[C@@H](c3ccc(Cl)cc3)[C@@H](c3ccc(Cl)cc3)N2C(=O)N2CCNC(=O)C2)c(OC(C)C)c1 [NUTLIN3]; assay: surviving fraction relative to DMSO-only wells; higher = less growth inhibition; settings: exposure time: 5 days
How it was run: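 Log-phase tumour cell lines were seeded at 250–500 cells per well in 384-well plates. After 24 hours they were exposed continuously for five days to inhibitors at 0.5, 1, 5, 10, 50, 100, 500 and 1000 nM. Viability was read by CellTiter-Glo luminescence after 10 minutes at room temperature, and surviving fraction is luminescence normalised to the median of DMSO-only wells. Each line was screened three times and kept only if replicate Pearson r >0.7 and median Z' >0.3.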

17-AAG = compound: C=CCNC1=C2C[C@@H](C)C[C@H](OC)[C@H](O)[C@@H](C)/C=C(\C)[C@H](OC(N)=O)[C@@H](OC)/C=C\C=C(/C)C(=O)NC(=CC1=O)C2=O [17-AAG]; assay: area under dose-response curve of surviving fraction (unscaled, Aref=0) (surviving fraction x log10(nM)); higher = more resistant; settings: exposure time: 5 days; dose range 0.5-1000 nM
How it was run: (§1)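 Each tumour cell line was screened three times in 384-well plates, receiving eight inhibitor concentrations from 0.5 to 1000 nM for five days. CellTiter-Glo luminescence gave viability, normalised to DMSO-only wells. Using the drc R package, surviving fractions were fitted with 3-parameter logistic dose-response curves, and the unscaled activity area over log10 dose (Aref = 0) was taken as the area under the curve.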

[2] = compound: CCN(CC)CCCCNc1ncc2cc(-c3cc(OC)cc(OC)c3)c(NC(=O)NC(C)(C)C)nc2n1; assay: as above; settings: exposure time: 5 days; dose range 0.5-1000 nM
How it was run: as §1

SALINOMYCIN = compound: CC[C@@H](C(=O)[C@@H](C)[C@@H](O)[C@H](C)[C@@H]1O[C@@H]([C@@H](CC)C(=O)O)CC[C@@H]1C)[C@H]1O[C@]2(C=C[C@@H](O)[C@]3(CC[C@@](C)([C@H]4CC[C@](O)(CC)[C@H](C)O4)O3)O2)[C@H](C)C[C@@H]1C [SALINOMYCIN]; assay: as above; settings: exposure time: 5 days; dose range 0.5-1000 nM
How it was run: as §1

ABT-737 = compound: CN(C)CC[C@H](CSc1ccccc1)Nc1ccc(S(=O)(=O)NC(=O)c2ccc(N3CCN(Cc4ccccc4-c4ccc(Cl)cc4)CC3)cc2)cc1[N+](=O)[O-] [ABT-737]; assay: as above; settings: exposure time: 5 days; dose range 0.5-1000 nM
How it was run: as §1

FLAVOPIRIDOL = compound: CN1CC[C@H](c2c(O)cc(O)c3c(=O)cc(-c4ccccc4Cl)oc23)[C@H](O)C1 [FLAVOPIRIDOL]; assay: as above; settings: exposure time: 5 days; dose range 0.5-1000 nM
How it was run: as §1

2-METHOXYESTRADIOL = compound: COc1cc2c(cc1O)CC[C@@H]1[C@@H]2CC[C@]2(C)[C@@H](O)CC[C@@H]12 [2-METHOXYESTRADIOL]; assay: as above; settings: exposure time: 5 days; dose range 0.5-1000 nM
How it was run: as §1

NUTLIN3 [3] = compound: T1, NUTLIN3; assay: as above; settings: exposure time: 5 days; dose range 0.5-1000 nM
How it was run: as §1

DOXORUBICIN = compound: COc1cccc2c1C(=O)c1c(O)c3c(c(O)c1C2=O)C[C@@](O)(C(=O)CO)C[C@@H]3O[C@H]1C[C@H](N)[C@H](O)[C@H](C)O1 [DOXORUBICIN]; assay: as above; settings: exposure time: 5 days; dose range 0.5-1000 nM
How it was run: as §1

VISMODEGIB = compound: CS(=O)(=O)c1ccc(C(=O)Nc2ccc(Cl)c(-c3ccccn3)c2)c(Cl)c1 [VISMODEGIB]; assay: as above; settings: exposure time: 5 days; dose range 0.5-1000 nM
How it was run: as §1

DECITABINE = compound: Nc1ncn([C@H]2C[C@H](O)[C@@H](CO)O2)c(=O)n1 [DECITABINE]; assay: as above; settings: exposure time: 5 days; dose range 0.5-1000 nM
How it was run: as §1

FLUOROURACIL = compound: O=c1[nH]cc(F)c(=O)[nH]1 [FLUOROURACIL]; assay: as above; settings: exposure time: 5 days; dose range 0.5-1000 nM
How it was run: as §1

RESVERATROL = compound: Oc1ccc(/C=C/c2cc(O)cc(O)c2)cc1 [RESVERATROL]; assay: as above; settings: exposure time: 5 days; dose range 0.5-1000 nM
How it was run: as §1

Row | Test System | surviving fraction (NUTLIN3 [1]; 0.5 nM) | surviving fraction (NUTLIN3 [1]; 1 nM) | surviving fraction (NUTLIN3 [1]; 5 nM) | surviving fraction (NUTLIN3 [1]; 10 nM) | surviving fraction (NUTLIN3 [1]; 50 nM) | surviving fraction (NUTLIN3 [1]; 100 nM) | surviving fraction (NUTLIN3 [1]; 500 nM) | surviving fraction (NUTLIN3 [1]; 1000 nM) | area under dose-response curve (17-AAG) | area under dose-response curve [2] | area under dose-response curve (SALINOMYCIN) | area under dose-response curve (ABT-737) | area under dose-response curve (FLAVOPIRIDOL) | area under dose-response curve (2-METHOXYESTRADIOL) | area under dose-response curve (NUTLIN3 [3]) | area under dose-response curve (DOXORUBICIN) | area under dose-response curve (VISMODEGIB) | area under dose-response curve (DECITABINE) | area under dose-response curve (FLUOROURACIL) | area under dose-response curve (RESVERATROL)
1 | A549 LUNG | 0.984 ± 0.03 | 0.996 ± 0.031 | 0.963 ± 0.026 | 0.953 ± 0.016 | 1.01 ± 0.084 | 1.02 ± 0.019 | 1.04 ± 0.053 | 1.08 ± 0.061 | 1.64 | 3.22 | 3.11 | 3.54 | 2.34 | 3.25 | 3.26 | 2.25 | 3.34 | 3.29 | 3.27 | 3.51
2 | BT549 BREAST | 1.16 ± 0.13 | 1.07 ± 0.11 | 1.07 ± 0.063 | 1.12 ± 0.11 | 1.18 ± 0.1 | 1.07 ± 0.067 | 1.17 ± 0.13 | 1.08 ± 0.25 | 1.1 |  | 2.75 |  | 2.02 | 3.02 | 3.68 | 1.41 | 2.93 | 2.69 | 2.98 | 3.52
3 | C33A CERVIX | 0.888 ± 0.04 | 0.928 ± 0.034 | 0.919 ± 0.084 | 0.905 ± 0.039 | 0.978 ± 0.094 | 1.04 ± 0.055 | 0.959 ± 0.068 | 1.03 ± 0.094 |  | 2.88 | 2.96 | 3.38 | 2.27 | 2.91 | 3.13 | 1.46 | 3.15 | 3.03 | 3.66 | 3.17
4 | CADOES1 SOFT TISSUE | 0.96 ± 0.077 | 0.925 ± 0.056 | 0.982 ± 0.036 | 0.801 ± 0.17 | 0.841 ± 0.077 | 0.874 ± 0.037 | 0.741 ± 0.014 | 0.517 ± 0.017 | 2.76 | 3.03 | 2.37 | 2.63 | 1.8 | 3.23 | 2.81 | 1.99 | 3.17 | 2.23 | 3.05 | 3.21
5 | CAL51 BREAST | 0.944 ± 0.012 | 0.928 ± 0.059 | 0.999 ± 0.053 | 0.979 ± 0.018 | 1.05 ± 0.054 | 1.01 ± 0.038 | 0.816 ± 0.1 | 0.707 ± 0.09 | 1.92 | 2.86 | 3.01 | 3.4 | 1.92 | 2.99 | 3.17 | 1.48 | 3.09 | 2.92 | 3.05 | 3.35
6 | CAL72 BONE | 1.09 ± 0.029 | 1.07 ± 0.033 | 1.1 ± 0.037 | 1.08 ± 0.055 | 1.08 ± 0.027 | 1.13 ± 0.043 | 1.1 ± 0.084 | 1.11 ± 0.024 | 2.63 | 2.46 | 3.12 | 3.52 | 2.13 | 3.18 | 3.61 | 1.9 | 3.17 | 3.26 | 3.25 | 3.49
7 | CAL120 BREAST | 0.921 ± 0.03 | 0.919 ± 0.051 | 0.933 ± 0.039 | 0.924 ± 0.02 | 0.9877 ± 0.005 | 0.9757 ± 0.0032 | 0.981 ± 0.012 | 0.977 ± 0.029 | 1.76 | 2.73 | 2.03 | 3.33 | 2.14 | 3 | 3.14 | 1.87 | 3.26 | 3.03 | 3.16 | 3.3
8 | CASKI CERVIX | 0.945 ± 0.0061 | 0.899 ± 0.053 | 0.9873 ± 0.0035 | 0.979 ± 0.027 | 1.04 ± 0.074 | 1.05 ± 0.026 | 0.972 ± 0.042 | 0.988 ± 0.05 | 1.32 | 3.09 | 2.37 | 3.24 | 1.76 | 3.06 | 3.23 | 0.836 | 3.06 | 2.1 | 3.05 | 3.22
9 | H23 LUNG | 1.02 ± 0.062 | 1.01 ± 0.056 | 1.02 ± 0.034 | 1.04 ± 0.048 | 1.08 ± 0.055 | 1.09 ± 0.085 | 1.05 ± 0.044 | 0.912 ± 0.031 | 1.66 | 3.28 |  | 3.5 | 2.33 | 3.11 | 3.42 | 1.79 | 3.43 | 2.74 | 3.28 | 3.42
10 | HCC78 LUNG | 1 ± 0.075 | 0.918 ± 0.053 | 0.918 ± 0.19 | 0.883 ± 0.18 | 0.946 ± 0.12 | 0.877 ± 0.11 | 0.889 ± 0.12 | 0.941 ± 0.07 | 1.44 | 3.12 | 2.33 |  | 1.62 | 2.57 | 3.02 | 1.2 | 3.52 | 2.49 | 3.24 | 
11 | HCC1395 BREAST | 1.18 ± 0.046 | 1.14 ± 0.1 | 1.25 ± 0.022 | 1.12 ± 0.069 | 1.21 ± 0.06 | 1.09 ± 0.061 | 0.999 ± 0.094 | 1.13 ± 0.16 | 3.19 | 2.85 |  | 3.99 |  | 3.84 | 3.79 |  | 2.48 | 4.02 | 3.24 | 3.66
12 | HOS BONE | 1.011 ± 0.0078 | 1.03 ± 0.014 | 1.008 ± 0.01 | 0.994 ± 0.02 | 1.06 ± 0.02 | 1.05 ± 0.01 | 1.057 ± 0.0091 | 1.09 ± 0.021 | 2.31 |  | 2.44 | 3.45 | 2.29 | 3.21 | 3.43 | 1.25 | 3.34 | 3.22 | 3.19 | 3.43
